Laboratory results as given in article PMC10227015, “From a drug repositioning to a structure-based drug design approach to tackle acute lymphoblastic leukemia” (Nature Communications, 2023).
Read-outs that look alike come from different tables or passages of the source.

Legend:
dCK-C3S-S74E [1] = assay: Enzymatic assay (PK/LDH coupled), dC phosphorylation by dCK in the presence of ATP; format: biochemical, human
In short: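 Continuous PK/LDH-coupled readout tracked NADH fluorescence loss at 460 nm while 1 mM ATP and 100 µM dC were turned over by 100 nM (or 50 nM) dCK-C3S-S74E in HEPES pH 7.5 buffer with MgCl2, DTT and KCl. Linear-range slopes normalized to no-compound control; IC50 fitted by nonlinear regression across compound concentrations.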

dCK-C3S-S74E [2] = assay: Enzymatic assay (PK/LDH coupled), dC phosphorylation by dCK in the presence of UTP; format: biochemical, human; conditions: for effect on dCK enzymatic activity, activation versus inhibition: UTP 1 mM, dC 200 µM; for ENZYMATIC ASSAY (Activation/Inhibition): presence of UTP
In short: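 Activation versus inhibition was judged with 1 mM UTP, 200 µM dC and 2 μM dCK-C3S-S74E, using pyruvate kinase/lactate dehydrogenase coupling that tracks NADH fluorescence decrease at 460 nm. Buffer was HEPES pH 7.5 with MgCl2, KCl and DTT. Rates came from linear slopes, expressed relative to compound-free control.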

[3] = presence of ATP, [dCK] = 100 nM, read-out: ENZYMATIC ASSAY IC50
[4] = presence of ATP, [dCK] = 50 nM (footnote A), read-out: ENZYMATIC ASSAY IC50

dCK-C3S-S74E, sequence (P27707 whole entry S74E, form open): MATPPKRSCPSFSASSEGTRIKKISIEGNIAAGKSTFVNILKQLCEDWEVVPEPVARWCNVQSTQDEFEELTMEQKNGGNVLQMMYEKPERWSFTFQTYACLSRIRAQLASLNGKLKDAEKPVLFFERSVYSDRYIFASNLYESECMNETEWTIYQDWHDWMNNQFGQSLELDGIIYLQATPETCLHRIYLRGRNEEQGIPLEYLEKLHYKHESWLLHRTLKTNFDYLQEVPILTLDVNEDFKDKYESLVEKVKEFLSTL

Structure (SMILES) | Enzymatic activity (ATP) Mean (% activity) (dCK-C3S-S74E [1]; 0.16 µM) [%] | Enzymatic activity (ATP) Mean (% activity) (dCK-C3S-S74E [1]; 0.31 µM) [%] | Enzymatic activity (ATP) Mean (% activity) (dCK-C3S-S74E [1]; 0.63 µM) [%] | Enzymatic activity (ATP) Mean (% activity) (dCK-C3S-S74E [1]; 1.25 µM) [%] | Enzymatic activity (ATP) Mean (% activity) (dCK-C3S-S74E [1]; 2.5 µM) [%] | Enzymatic activity (ATP) Mean (% activity) (dCK-C3S-S74E [1]; 5 µM) [%] | Enzymatic activity (ATP) Mean (% activity) (dCK-C3S-S74E [1]; 10 µM) [%] | Enzymatic activity (ATP) Mean (% activity) (dCK-C3S-S74E [1]; 20 µM) [%] | Enzymatic activity (ATP) Mean (% activity) (dCK-C3S-S74E [1]; 40 µM) [%] | IC50 (dCK-C3S-S74E [1]; [3]) [nM] | effect on dCK enzymatic activity, activation versus inhibition (dCK-C3S-S74E [2]) | ENZYMATIC ASSAY (Activation/Inhibition) (dCK-C3S-S74E [2]) | Enzymatic activity (ATP) Mean (% activity) (dCK-C3S-S74E [1]; 0.02 µM) [%] | Enzymatic activity (ATP) Mean (% activity) (dCK-C3S-S74E [1]; 0.04 µM) [%] | Enzymatic activity (ATP) Mean (% activity) (dCK-C3S-S74E [1]; 0.08 µM) [%] | further results
Cc1ccc(NC(=O)c2ccc(CN3CCN(C)CC3)cc2)cc1Nc1nc(-c2nccc(N)n2)cs1 [dCKi1] | 93.7 | 94.8 | 91.7 | 77.3 | 51.8 | 30.3 | 11.5 | 3.9 | 3.1 | 2660 ± 608 | shifted from activators to inhibitors | A/I | – | – | – | Enzymatic activity (UTP) Mean (% activity) (dCK-C3S-S74E [2]; 0.078 µM): 104.73%; Enzymatic activity (UTP) Mean (% activity) (dCK-C3S-S74E [2]; 0.156 µM): 119.43%; Enzymatic activity (UTP) Mean (% activity) (dCK-C3S-S74E [2]; 0.31 µM): 140.85%; Enzymatic activity (UTP) Mean (% activity) (dCK-C3S-S74E [2]; 0.625 µM): 200.29%; Enzymatic activity (UTP) Mean (% activity) (dCK-C3S-S74E [2]; 1.25 µM): 208.47%; Enzymatic activity (UTP) Mean (% activity) (dCK-C3S-S74E [2]; 2.5 µM): 211.72%; Enzymatic activity (UTP) Mean (% activity) (dCK-C3S-S74E [2]; 5 µM): 205.54%; Enzymatic activity (UTP) Mean (% activity) (dCK-C3S-S74E [2]; 10 µM): 84.19%; Enzymatic activity (UTP) Mean (% activity) (dCK-C3S-S74E [2]; 20 µM): 45.49%; Enzymatic activity (UTP) Mean (% activity) (dCK-C3S-S74E [2]; 40 µM): 12.08%; Enzymatic activity (UTP) Mean (% activity) (dCK-C3S-S74E [2]; 80 µM): 5.40%; Enzymatic activity (UTP) Mean (% activity) (dCK-C3S-S74E [2]; 160 µM): 0.67%
Cc1ccc(-c2ccc(CN3CCN(C)CC3)cc2)cc1Nc1nc(-c2nccc(N)n2)cs1 [OR0274] | 86.8 | 81.3 | 62.9 | 44.6 | 27.8 | 11.8 | 11.9 | 7.8 | 5.0 | 1033 ± 10 | – | A/I | – | – | – | –
CCCN(c1nc(-c2nc(N)cc(N)n2)cs1)c1cc(-c2ccc(CCN3CCN(C)CC3)nc2)ccc1C [OR0602] | 23.6 | 0.751 | 4.3 | 6.6 | 6.1 | 4.8 | – | – | – | – | – | I | 88.7 | 81.1 | 60.0 | IC50 (dCK-C3S-S74E [1]; ATP, technical limit of the assay, read-out: enzymatic inhibition IC50): 77 nM
CCCN(c1nc(-c2nc(N)cc(N)n2)cs1)c1cc(-c2ccc(S(=O)(=O)N3CCN(C)CC3)c(OC)c2)ccc1C [OR0635] | 15.4 | 4.7 | 4.6 | 2.0 | 1.6 | – | – | – | – | – | – | I | 74.5 | 82.4 | 61.6 | Enzymatic activity (ATP) Mean (% activity) (dCK-C3S-S74E [1]; 0.01 µM): 71.4%; IC50 (dCK-C3S-S74E [1]; [4]): 66 ± 11 nM
CCCN(c1nc(-c2nc(N)cc(N)n2)cs1)c1cc(-c2ccc(CCN3CCN(C)CC3)cc2)ccc1C [OR0600] | 43.5 | 11.4 | 0.0484 | 1.1 | -0.9 | -8.7 | -3.1 | – | – | 121 ± 21 | only exhibited enzymatic inhibition | I | – | 92.1 | 78.6 | –
CCCN(c1nc(-c2nc(N)cc(N)n2)cs1)c1cc(-c2ccc(S(=O)(=O)N3CCN(C)CC3)cc2C(F)(F)F)ccc1C [OR0642] | 43.5 | 8.3 | 4.2 | 2.4 | -0.5 | – | – | – | – | – | inhibitor even at concentrations in the nanomolar range | I | 80.5 | 65.5 | 63.0 | Enzymatic activity (ATP) Mean (% activity) (dCK-C3S-S74E [1]; 0.01 µM): 79.2%; IC50 (dCK-C3S-S74E [1]; [4]): 106 ± 30 nM
Cc1ccc(-c2ccc(CCN3CCN(C)CC3)cc2)cc1Nc1nc(-c2nccc(N)n2)cs1 [OR0325] | 87.3 | 73.6 | 56.4 | 34.0 | 19.3 | 12.3 | 11.6 | 8.1 | 4.4 | 826 ± 78 | – | A/I | – | – | – | –
CCCN(c1nc(-c2nccc(N)n2)cs1)c1cc(-c2ccc(CCN3CCN(C)CC3)cc2)ccc1C [OR0345] | 85.5 | 56.9 | 22.9 | 5.3 | -9.9 | -2.1 | -7.8 | – | – | 315 ± 50 | total loss of dCK enzymatic activation | I | – | 96.0 | 95.1 | –
Cc1ccc(NC(=O)c2ccc(CN3CCN(C)CC3)cc2)cc1Nc1nc(-c2nc(N)cc(N)n2)cs1 [dCKi2, N-(3-((4-(4,6-diaminopyrimidin-2-yl)thiazol-2-yl)amino)-4-methylphenyl)-4-((4-methylpiperazin-1-yl)methyl)benzamide] | 97.2 | 85.8 | 62.1 | 35.4 | 16.5 | 3.9 | 3.9 | 2.6 | 5.2 | 903 ± 37 | shifted from activators to inhibitors | A/I | – | – | – | Enzymatic activity (UTP) Mean (% activity) (dCK-C3S-S74E [2]; 0.156 µM): 93.59%; Enzymatic activity (UTP) Mean (% activity) (dCK-C3S-S74E [2]; 0.31 µM): 84.70%; Enzymatic activity (UTP) Mean (% activity) (dCK-C3S-S74E [2]; 0.625 µM): 90.40%; Enzymatic activity (UTP) Mean (% activity) (dCK-C3S-S74E [2]; 1.25 µM): 99.44%; Enzymatic activity (UTP) Mean (% activity) (dCK-C3S-S74E [2]; 2.5 µM): 135.24%; Enzymatic activity (UTP) Mean (% activity) (dCK-C3S-S74E [2]; 5 µM): 164.65%; Enzymatic activity (UTP) Mean (% activity) (dCK-C3S-S74E [2]; 10 µM): 178.80%; Enzymatic activity (UTP) Mean (% activity) (dCK-C3S-S74E [2]; 20 µM): 174.40%; Enzymatic activity (UTP) Mean (% activity) (dCK-C3S-S74E [2]; 40 µM): 165.28%; Enzymatic activity (UTP) Mean (% activity) (dCK-C3S-S74E [2]; 80 µM): 150.42%; Enzymatic activity (UTP) Mean (% activity) (dCK-C3S-S74E [2]; 160 µM): 147.75%
